Measurements: PubChem BioAssay AID743341 (Broad Institute, 2014)
Inconclusive results are not listed. The source made the active and inactive calls.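 The calls were made as follows: active = fitted curve of myotube length rescue reaches 40% at or below the top valid tested dose in every replicate test; inconclusive = replicate tests give mixed outcomes; inactive = every replicate test inactive, including effects in the opposite direction.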

Test system: C2C12 myotubes + simvastatin, MHC imaging tube length, 48 h
Assay: rescue of myotube length under simvastatin, confirmation, orthogonal assay for statin myotoxicity suppressor project, imaging, C2C12 myotubes, MHC immunostaining, dry powder (AID 743341)
Conditions: not given

SMILES	AC40
C[C@@H]1CN([C@@H](C)CO)C(=O)c2cc(NC(=O)Cc3cn(C)c4ccccc34)ccc2O[C@@H]1CN(C)Cc1ccc(C(=O)Nc2ccccc2N)cc1	10.5 µM
C[C@H]1CN([C@@H](C)CO)C(=O)Cc2cc(NC(=O)Nc3cccc4ccccc34)ccc2O[C@H]1CN(C)Cc1ccc(C(=O)Nc2ccccc2N)cc1	4.57 µM
C[C@@H]1CN([C@H](C)CO)C(=O)c2cccc(NC(=O)c3nc4ccccc4s3)c2O[C@@H]1CN(C)Cc1ccc(C(=O)Nc2ccccc2N)cc1	1.79 µM
C[C@@H]1CN([C@H](C)CO)C(=O)Cc2cc(NC(=O)C3CCCCC3)ccc2O[C@H]1CN(C)Cc1ccc(Cl)c(Cl)c1	7.84 µM
C[C@@H]1CN([C@@H](C)CO)C(=O)c2cc(NC(=O)Cc3cn(C)c4ccccc34)ccc2O[C@H]1CN(C)Cc1ccc(C(=O)Nc2ccccc2N)cc1	10.9 µM
C[C@H](CO)N1C[C@H](C)[C@H](CN(C)Cc2ccc(C(=O)Nc3ccccc3N)cc2)Oc2ccc(NC(=O)Nc3ccc(F)cc3)cc2CC1=O	0.655 µM
CC(C)=CCC/C(C)=C/CC/C(C)=C/CC/C(C)=C/CO	4.25 µM
C[C@H]1CN([C@@H](C)CO)C(=O)c2cc(C#Cc3ccncc3)cnc2O[C@@H]1CN(C)CC1CCCC1	8.86 µM
C[C@H]1CN([C@@H](C)CO)C(=O)Cc2cc(NC(=O)CCCCCC(=O)Nc3ccccc3N)ccc2O[C@H]1CN(C)Cc1ccc(Oc2ccccc2)cc1	3.07 µM
C[C@H](CO)N1C[C@H](C)[C@@H](CN(C)Cc2ccc(C(=O)Nc3ccccc3N)cc2)Oc2ccc(NC(=O)Cc3cn(C)c4ccccc34)cc2C1=O	10.2 µM
N#C[C@@H]1[C@@H](c2ccc(-c3ccc(F)cc3)cc2)[C@H](CO)N1C(=O)Cc1ccccc1	15 µM
C[C@@H]1CN([C@H](C)CO)C(=O)c2cccc(NC(=O)Nc3ccc4c(c3)OCO4)c2O[C@H]1CN(C)Cc1ccc(C(=O)Nc2ccccc2N)cc1	0.76 µM

Test system: not listed separately
Assay: as above
Conditions: C2C12 myotubes + simvastatin, MHC imaging tube length, 48 h; at 18 µM (top of the series)

SMILES	rescue of myotube length
C[C@H]1CN([C@@H](C)CO)C(=O)Cc2cc(NC(=O)CCCCCC(=O)Nc3ccccc3N)ccc2O[C@H]1CN(C)Cc1ccccc1	21.7% (inactive)
C[C@H](CO)N1C[C@H](C)[C@H](CN(C)Cc2ccc3c(c2)OCO3)Oc2ccc(NC(=O)CCCCCC(=O)Nc3ccccc3N)cc2CC1=O	19.7% (inactive)

Same assay, conditions: C2C12 myotubes + simvastatin, MHC imaging tube length, 48 h; at 19.5 µM (top of the series)

SMILES	rescue of myotube length
CCCC#Cc1ccc([C@H]2[C@@H](C#N)N(S(=O)(=O)c3cccc(F)c3)[C@H]2CO)cc1	4.16% (inactive)
N#C[C@@H]1[C@@H](c2ccc(C3=CCCCC3)cc2)[C@H](CO)N1C(=O)NC1CCCC1	9.82% (inactive)
C/C=C/c1ccc([C@H]2[C@@H](CO)N(C(=O)NC3CCCC3)[C@H]2C#N)cc1	12.4% (inactive)
COc1ccc(S(=O)(=O)Nc2ccc3c(c2)CC(=O)N([C@H](C)CO)C[C@H](C)[C@@H](CN(C)Cc2ccc(Cl)c(Cl)c2)O3)cc1	-14.2% (inactive)
N#C[C@@H]1[C@@H](c2ccccc2-c2ccc(F)cc2)[C@H](CO)N1C(=O)NC1CCCC1	15.4% (inactive)
C[C@H](CO)N1C[C@H](C)[C@@H](CN(C)Cc2ccc(Oc3ccccc3)cc2)Oc2c(NC(=O)Nc3cccc4ccccc34)cccc2C1=O	14.7% (inactive)
N#C[C@H]1[C@H](c2ccc(C#CCC3CCCC3)cc2)[C@@H](CO)N1C(=O)CN1CCOCC1	14.6% (inactive)
N#C[C@@H]1[C@@H](c2ccc(-c3cccc(F)c3)cc2)[C@H](CO)N1C(=O)c1cccnc1	12.6% (inactive)
N#C[C@H]1[C@H](c2ccc(C#Cc3ccc(F)cc3)cc2)[C@H](CO)N1c1nc(-c2ccccc2)cs1	25.1% (inactive)
N#C[C@@H]1[C@@H](c2ccccc2-c2cccc(F)c2)[C@H](CO)N1C(=O)NC1CCCC1	10.7% (inactive)
N#C[C@@H]1[C@@H](c2ccc(C#Cc3cccnc3)cc2)[C@@H](CO)N1C(=O)C1CCCC1	5.74% (inactive)
O=C(C[C@H]1CC[C@@H]2[C@H](COC[C@@H](O)CN2Cc2ccc(Oc3ccccc3)cc2)O1)N1CCCCC1	15.6% (inactive)
C[C@@H]1CN([C@H](C)CO)C(=O)Cc2cc(NS(=O)(=O)c3cn(C)cn3)ccc2O[C@@H]1CN(C)Cc1ccc(Cl)c(Cl)c1	24% (inactive)
N#C[C@@H]1[C@@H](c2ccc(-c3cccc(F)c3)cc2)[C@@H](CO)N1C(=O)NC1CCCC1	3.2% (inactive)
COc1ccc(CN(C)C[C@H]2Oc3ccc(NS(=O)(=O)c4ccc(Cl)cc4)cc3CC(=O)N([C@@H](C)CO)C[C@@H]2C)cc1	-19% (inactive)
N#C[C@H]1[C@H](c2ccc(-c3cccc(F)c3)cc2)[C@H](CO)N1C(=O)NC1CCCC1	14.9% (inactive)
COc1ccc(C#Cc2cnc3c(c2)C(=O)N([C@H](C)CO)C[C@H](C)[C@H](CN(C)Cc2ccccc2)O3)cc1OC	-10.4% (inactive)
Cc1ccc(S(=O)(=O)Nc2ccc3c(c2)CC(=O)N([C@@H](C)CO)C[C@@H](C)[C@H](CN(C)Cc2ccc(-c4ccccc4)cc2)O3)cc1	-2.54% (inactive)
CCCNC(=O)N1[C@H](CO)[C@H](c2ccccc2)[C@@H]1C#N	1.19% (inactive)

SMILES	rescue of myotube length
COc1ccc(S(=O)(=O)N(C)C[C@H]2Oc3c(NC(=O)Nc4ccccc4)cccc3C(=O)N([C@H](C)CO)C[C@H]2C)cc1	3.68% (inactive)
COc1ccc(S(=O)(=O)Nc2cccc3c2O[C@H](CN(C)C(=O)Nc2ccc(F)cc2)[C@H](C)CN([C@@H](C)CO)C3=O)cc1	-2.59% (inactive)
COc1ccc(-c2ccc([C@@H]3[C@@H](C#N)N(C(=O)NC4CCCC4)[C@H]3CO)cc2)cc1	7.03% (inactive)
O=C(C[C@H]1CC[C@@H]2[C@H](COC[C@H](O)CN2CCC(F)(F)F)O1)NCc1ccc(Oc2ccccc2)cc1	5.97% (inactive)
CCCNC(=O)N1[C@H](C#N)[C@@H](c2ccc(C3=CCCCC3)cc2)[C@@H]1CO	22.8% (inactive)
C[C@@H]1CN([C@@H](C)CO)C(=O)c2cc(NS(=O)(=O)c3ccc(Cl)cc3)ccc2O[C@H]1CN(C)C(=O)Nc1cccc2ccccc12	-1.68% (inactive)
CN1C(=O)c2cc(NC(=O)c3ccc(F)c(F)c3)ccc2OC[C@H]2O[C@@H](CC(=O)Nc3ccc4c(c3)COC4)CC[C@@H]21	12.6% (inactive)
N#C[C@H]1[C@@H](c2ccc(-c3cccc(F)c3)cc2)[C@H](CO)N1C(=O)NC1CCCC1	8.46% (inactive)
Cc1noc(C)c1S(=O)(=O)Nc1ccc2c(c1)CC(=O)N([C@H](C)CO)C[C@H](C)[C@@H](CN(C)Cc1ccc(C(F)(F)F)cc1)O2	-1.01% (inactive)
COc1ccc(C#Cc2cnc3c(c2)C(=O)N([C@H](C)CO)C[C@H](C)[C@@H](CN(C)C(=O)Nc2cccc(OC)c2)O3)cc1	30.4% (inactive)
Cc1ccc(S(=O)(=O)N(C)C[C@@H]2Oc3ccc(NS(=O)(=O)c4ccc(Cl)cc4)cc3C(=O)N([C@H](C)CO)C[C@@H]2C)cc1	3.15% (inactive)
C[C@@H]1CN([C@H](C)CO)C(=O)Cc2cc(NS(=O)(=O)c3ccc(Cl)cc3)ccc2O[C@H]1CN(C)Cc1ccccc1	0.917% (inactive)
N#C[C@@H]1[C@H](c2ccc(-c3cccc(F)c3)cc2)[C@@H](CO)N1C(=O)NC1CCCC1	12.9% (inactive)
C[C@@H]1CN([C@H](C)CO)C(=O)Cc2cc(NC(=O)CCCCCC(=O)Nc3ccccc3N)ccc2O[C@@H]1CN(C)Cc1ccc(Oc2ccccc2)cc1	-9.32% (inactive)
CN(C)C(=O)c1cccc(-c2ccc([C@@H]3[C@@H](C#N)N(C(=O)C4CCCC4)[C@@H]3CO)cc2)c1	13.3% (inactive)
N#C[C@H]1[C@@H](c2ccc(-c3cccc(F)c3)cc2)[C@@H](CO)N1C(=O)NC1CCCC1	-4.89% (inactive)
C[C@H](CO)N1C[C@H](C)[C@@H](CN(C)Cc2ccc(Cl)c(Cl)c2)Oc2ccc(NC(=O)C3CC3)cc2CC1=O	-6.48% (inactive)
COc1ccc(S(=O)(=O)Nc2ccc3c(c2)CC(=O)N([C@H](C)CO)C[C@@H](C)[C@H](CN(C)CC2CCCCC2)O3)cc1	-8.93% (inactive)
C[C@H]1CN([C@@H](C)CO)C(=O)c2cc(NC(=O)Nc3cccc4ccccc34)ccc2O[C@H]1CN(C)Cc1ccc(C(=O)Nc2ccccc2N)cc1	13.4% (inactive)

Same assay, conditions: C2C12 myotubes + simvastatin, MHC imaging tube length, 48 h; at 21 µM (top of the series)

SMILES	rescue of myotube length
CCCNC(=O)N1[C@@H](C#N)[C@@H](c2ccc(-c3ccccc3F)cc2)[C@@H]1CO	-2.07% (inactive)
C[C@H]1CN([C@@H](C)CO)C(=O)Cc2cc(NS(=O)(=O)c3ccc(Cl)cc3)ccc2O[C@@H]1CN(C)CC1CCCCC1	-32.7% (inactive)
Cc1noc(C)c1S(=O)(=O)Nc1ccc2c(c1)CC(=O)N([C@H](C)CO)C[C@@H](C)[C@@H](CN(C)Cc1ccc(-c3ccccc3)cc1)O2	-14.9% (inactive)
N#C[C@H]1N[C@@H](CO)[C@@H]1c1ccc(-c2cccc(F)c2)cc1	8.43% (inactive)
C[C@@H]1CN([C@@H](C)CO)C(=O)c2cc(NC(=O)Nc3cccc4ccccc34)ccc2O[C@@H]1CN(C)Cc1ccc(C(=O)Nc2ccccc2N)cc1	20.8% (inactive)
C[C@@H]1CN([C@@H](C)CO)C(=O)Cc2cc(NC(=O)CCCCCC(=O)Nc3ccccc3N)ccc2O[C@@H]1CN(C)Cc1ccc(Oc2ccccc2)cc1	-5.63% (inactive)
CCS(=O)(=O)N1[C@H](C#N)[C@@H](c2ccc(-c3cccc(F)c3)cc2)[C@@H]1CO	16.6% (inactive)
N#C[C@@H]1[C@@H](c2ccc(C#CC3CCCC3)cc2)[C@H](CO)N1S(=O)(=O)c1ccccc1	4.55% (inactive)
CC(C)CC#Cc1cnc2c(c1)C(=O)N([C@H](C)CO)C[C@H](C)[C@@H](CN(C)C(=O)Cc1ccccc1)O2	-0.121% (inactive)
COCC(=O)N1[C@H](C#N)[C@@H](c2ccc(-c3cccc(F)c3)cc2)[C@@H]1CO	4.32% (inactive)
N#C[C@@H]1[C@@H](c2ccccc2)[C@H](CO)N1S(=O)(=O)c1ccc(-c2ccccc2)cc1	13.9% (inactive)
